Assay results from patent US4282245A, “Dibenzothiepin derivatives and a process for producing the same” (Nippon Chemiphar Co., Ltd., priority 1978, dated 1981).

System: edema in the hind paws (carrageenan)
Test: carrageenan-induced hind paw edema in rats, oral administration (antiinflammatory effect)
Format: in vivo, Male Wistar rats
Conditions: Rattus norvegicus, po, 3 h, read-out: Inhibition (%) (after 3 hours)
Experimental: Male Wistar rats each weighing about 100 g, one group consisting of 5 to 7 animals, were orally given the compounds of the present invention and Indomethacin as a contrast, and edema was then induced in the hind paws by subcutaneous injection of 0.1 ml of 1% carrageenan one hour after the administration of the test compounds. Thereafter, the volumes of the hind paws with a predetermined lapse of time were measured by a volume differential meter.

Compound	inhibition in vivo at 2 mg/kg
COc1ccc2c(c1)c(CC(=O)O)c(C)n2C(=O)c1ccc(Cl)cc1 [Indomethacin, reference compound]	34.5%

Same assay, conditions: Rattus norvegicus; oral, 2 mg/kg, after 3 hours, carrageenan hind paw edema, male Wistar rats; read-out: Inhibition (%) (after 3 hours)

Compound	inhibition in vivo at 2 mg/kg
COc1ccc2c(c1)CC(=O)c1cc(C(C)C(N)=O)ccc1S2 (stereo not drawn) [Compound 1, 2(10,11-dihydro-8-methoxy-11-oxodibenzo[b,f]thiepin2-yl)-propionamide]	67.8%
CC(C(N)=O)c1ccc2c(c1)C(=O)Cc1cc(Cl)ccc1S2 (stereo not drawn) [Compound 4, 2(8-chloro-10,11-dihydro-11-oxodibenzo[b,f]thiepin2-yl)-propionamide]	46.8%
CCOc1ccc2c(c1)CC(=O)c1cc(C(C)C(N)=O)ccc1S2 (stereo not drawn) [Compound 3, 2(10,11-dihydro-8-ethoxy-11-oxodibenzo[b,f]thiepin2-yl)-propionamide]	40.4%
CC(C(=O)O)c1ccc2c(c1)C(=O)Cc1cc(Cl)ccc1S2 (stereo not drawn) [Compound 5, 2(8-chloro-10,11-dihydro-11-oxodibenzo[b,f]thiepin2-yl)-propionic acid]	61.6%
CC(C(=O)O)c1ccc2c(c1)C(=O)Cc1cc(F)ccc1S2 (stereo not drawn) [Compound 7, 2(10,11-dihydro-8-fluoro-11-oxodibenzo[b,f]thiepin2-yl)-propionic acid]	66.8%
CC(C(N)=O)c1ccc2c(c1)C(=O)Cc1ccc(F)cc1S2 (stereo not drawn) [Compound 8, 2(10,11-dihydro-7-fluoro-11-oxodibenzo[b,f]thiepin2-yl)-propionamide]	41.9%
COc1ccc2c(c1)CC(=O)c1cc(C(C)C(=O)O)ccc1S2 (stereo not drawn) [Compound 2, 2(10,11-dihydro-8-methoxy-11-oxodibenzo[b,f]thiepin2-yl)-propionic acid]	48.2%
CC(C(N)=O)c1ccc2c(c1)C(=O)Cc1cc(F)ccc1S2 (stereo not drawn) [Compound 6, 2(10,11-dihydro-8-fluoro-11-oxodibenzo[b,f]thiepin2-yl)-propionamide]	58.4%

Same assay, conditions: relative to Indomethacin = 1.00; oral, 2 mg/kg, carrageenan hind paw edema, male Wistar rats

Compound	Rate to Indomethacin
COc1ccc2c(c1)CC(=O)c1cc(C(C)C(N)=O)ccc1S2 (stereo not drawn) [Compound 1, 2(10,11-dihydro-8-methoxy-11-oxodibenzo[b,f]thiepin2-yl)-propionamide]	5.2
CC(C(N)=O)c1ccc2c(c1)C(=O)Cc1cc(Cl)ccc1S2 (stereo not drawn) [Compound 4, 2(8-chloro-10,11-dihydro-11-oxodibenzo[b,f]thiepin2-yl)-propionamide]	1.4
CCOc1ccc2c(c1)CC(=O)c1cc(C(C)C(N)=O)ccc1S2 (stereo not drawn) [Compound 3, 2(10,11-dihydro-8-ethoxy-11-oxodibenzo[b,f]thiepin2-yl)-propionamide]	1.2
CC(C(=O)O)c1ccc2c(c1)C(=O)Cc1cc(Cl)ccc1S2 (stereo not drawn) [Compound 5, 2(8-chloro-10,11-dihydro-11-oxodibenzo[b,f]thiepin2-yl)-propionic acid]	2.7
COc1ccc2c(c1)c(CC(=O)O)c(C)n2C(=O)c1ccc(Cl)cc1 [Indomethacin, reference compound]	1.00
CC(C(=O)O)c1ccc2c(c1)C(=O)Cc1cc(F)ccc1S2 (stereo not drawn) [Compound 7, 2(10,11-dihydro-8-fluoro-11-oxodibenzo[b,f]thiepin2-yl)-propionic acid]	4.56
CC(C(N)=O)c1ccc2c(c1)C(=O)Cc1ccc(F)cc1S2 (stereo not drawn) [Compound 8, 2(10,11-dihydro-7-fluoro-11-oxodibenzo[b,f]thiepin2-yl)-propionamide]	1.45
COc1ccc2c(c1)CC(=O)c1cc(C(C)C(=O)O)ccc1S2 (stereo not drawn) [Compound 2, 2(10,11-dihydro-8-methoxy-11-oxodibenzo[b,f]thiepin2-yl)-propionic acid]	1.9
CC(C(N)=O)c1ccc2c(c1)C(=O)Cc1cc(F)ccc1S2 (stereo not drawn) [Compound 6, 2(10,11-dihydro-8-fluoro-11-oxodibenzo[b,f]thiepin2-yl)-propionamide]	2.29
